These results are taken from patent US20110038885A1, “CHEMOKINE ANALOGS” (priority 2007, published 2011).

The subject of this assay is MCP-1. In words: In vitro chemotaxis (trans-well migration) v MCP-1. In kind it is cell-based, human. The method in brief: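 Trans-well migration toward IL-8 or MCP-1 placed below, with agent added to THP-1 cells (10^4-10^6) in the top well and incubation at 37° C (e.g. 4 hours). MTT absorbance at 595 nm, interpolated on a cell standard curve, gives migrated cell numbers; TGFβ-type negative control and cytotoxicity check included.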

Numbered stars: 1 amine (or outer) side, 2 acyl side, 3 side chain; on linkers, the order of the positions; unused ones are H or OH. Bridge positions count the residues as written; N and C are the ends. Square brackets hold non-standard residues; d marks the D form. Side chains are listed from the residue outwards. Peptide text beside a SMILES is read from it. * marks the point of attachment. Hydrocinnamoyl(4-Me) = Cc1ccc(CCC(=O)*)cc1; Phenylacetyl(4-Me) = Cc1ccc(CC(=O)*)cc1; γGlu = O=C(O)[C@H](CCC(=O)[*:2])N[*:1]; NH(CH2)8CO = O=C(CCCCCCCCN[*:1])[*:2]; Diglycolyl = O=C(COCC(=O)[*:2])[*:1]; Suc = O=C(CCC(=O)[*:2])[*:1]; Decanoyl = CCCCCCCCCC(=O)*; Isobutyryl = CC(C)C(=O)*; Orn = NCCC[C@H](N)C(=O)O; Dab = NCC[C@H](N)C(=O)O; Dap = NC[C@H](N)C(=O)O; Hexanoyl = CCCCCC(=O)*; Bz = O=C(c1ccccc1)*; Ahx = NCCCCCC(=O)O; Ava = NCCCCC(=O)O; GABA = NCCCC(=O)O

A word on the EC50: it is the concentration needed to bring the measured effect to its halfway point. A low value points to greater potency.

Turning to `CC[C@@H](C)[C@H]1NC(=O)[C@@H](CCC(N)=O)NC(=O)[C@H](NC(=O)C(C)C)CSSC[C@H](C(N)=O)NC(=O)[C@@H](CCCCN)NC(=O)[C@@H](Cc2c[nH]c3ccccc23)NC1=O` [Example 193, Isobutyryl-c(D-Cys-D-Gln-D-Ile-D-Trp-D-Lys-D-Cys)-NH2] (Isobutyryl-[dC][dQ][dI][dW][dK][dC]-NH2; disulfide 1-6), the concentration for a half-maximal effect (EC50) stood at 25 nM.

In turn, `CC[C@H](C)[C@@H]1NC(=O)[C@@H](N)CSSC[C@@H](C(N)=O)NC(=O)[C@H](CCC(N)=O)NC1=O` [Example 86, c(Cys-Ile-Gln-Cys)-NH2] (H-CIQC-NH2; disulfide 1-4) came in with a 50% effective concentration (EC50) of 7.5 nM.

Regarding `CC[C@H](C)[C@@H]1NC(=O)[C@H](Cc2c[nH]c3ccccc23)NC(=O)[C@H](CCCCN)NC(=O)[C@@H](NC(C)=O)CCCCNC(=O)CC[C@@H](C(N)=O)NC(=O)[C@H](CCC(N)=O)NC1=O` [Example 124, Ac-c(Lys-Lys-Trp-Ile-Gln-Glu)-NH2] (Ac-KKWIQE-NH2; lactam 1-6), the midpoint of the response, the EC50, lay at 8 nM. For `CC[C@H](C)[C@@H]1NC(=O)[C@H](Cc2c[nH]c3ccccc23)NC(=O)[C@H](CCCCN)NC(=O)COCC(=O)NCC[C@@H](C(N)=O)NC(=O)[C@H](CCC(N)=O)NC1=O` [Example 131, c(Diglycolyl-Lys-Trp-Ile-Gln-Dab)-NH2] (KWIQ[Dab]-NH2; linker N-5 via Diglycolyl) the value was 30 nM. Turning to `CCCCCCCCCC(=O)N[C@@H](CCC(=O)NCCCC[C@H](N)C(=O)N[C@H]1CSSC[C@@H](C(N)=O)NC(=O)[C@H](CCC(N)=O)NC(=O)[C@H]([C@@H](C)CC)NC(=O)[C@H](Cc2c[nH]c3ccccc23)NC(=O)[C@H](CCCCN)NC(=O)[C@H](CCC(N)=O)NC(=O)[C@H](CCCCN)NC(=O)[C@@H]2CCCN2C(=O)[C@H](CC(=O)O)NC(=O)[C@H](CC(C)C)NC1=O)C(=O)O` [Example 173, Lys{Nε-[γ-Glu-(Nα-decanoyl)]}-c(Cys-Leu-Asp-Pro-Lys-Gln-Lys-Trp-Ile-Gln-Cys)-NH2] (H-K([γGlu-Decanoyl])CLDPKQKWIQC-NH2; disulfide 2-12), the concentration giving a half-maximal response (EC50) was over 1000 nM.

In turn, `CC[C@@H](C)[C@H]1NC(=O)[C@@H](CCC(N)=O)NC(=O)[C@H](NC(C)=O)CSSC[C@H](C(N)=O)NC(=O)[C@@H](CC(C)C)NC(=O)[C@@H](CC(=O)O)NC(=O)[C@H]2CCCN2C(=O)[C@@H](CCCCN)NC(=O)[C@@H](CCC(N)=O)NC(=O)[C@@H](CCCCN)NC(=O)[C@@H](Cc2c[nH]c3ccccc23)NC1=O` [Example 198, Ac-c(D-Cys-D-Gln-D-Ile-D-Trp-D-Lys-D-Gln-D-Lys-D-Pro-D-Asp-D-Leu-D-Cys)-NH2] (Ac-[dC][dQ][dI][dW][dK][dQ][dK][dP][dD][dL][dC]-NH2; disulfide 1-11) registered an EC50 of 20 nM. Turning to `CC[C@H](C)[C@@H]1NC(=O)[C@H](Cc2c[nH]c3ccccc23)NC(=O)[C@H](CCCCN)NC(=O)CNC(=O)C[C@@H](C(N)=O)NC(=O)[C@H](CCC(N)=O)NC1=O` [Example 87, c(Gly-Lys-Trp-Ile-Gln-Asp)-NH2] (GKWIQD-NH2; lactam N-6), the half-maximal effective concentration (EC50) came out at 15 nM.

In the case of `CC[C@H](C)[C@@H]1NC(=O)[C@H](Cc2c[nH]c3ccccc23)NC(=O)[C@H](CCCCN)NC(=O)[C@@H](NC(=O)Cc2ccc(C)cc2)CSSC[C@@H](C(N)=O)NC(=O)[C@H](CCC(N)=O)NC1=O` [Example 71, p-Tolylacetyl-c(Cys-Lys-Trp-Ile-Gln-Cys)-NH2] ({Phenylacetyl(4-Me)}-CKWIQC-NH2; disulfide 1-6), the EC50 came to 10 nM. For `CC[C@H](C)[C@@H]1NC(=O)[C@H](Cc2c[nH]c3ccccc23)NC(=O)[C@H](CCCCN)NC(=O)CSC[C@@H](C(N)=O)NC(=O)[C@H](CCC(N)=O)NC1=O` [Example 65, c(Ac-Lys-Trp-Ile-Gln-Cys)-NH2] ({CH2CO}-KWIQC-NH2; thioether N-5) the value was 30 nM; for `CC[C@@H](C)[C@H]1NC(=O)[C@@H](CCC(N)=O)NC(=O)CCCNC(=O)C[C@H](C(N)=O)NC(=O)[C@@H](CCCCN)NC(=O)[C@@H](Cc2c[nH]c3ccccc23)NC1=O` [Example 196, c(Gaba-D-Gln-D-Ile-D-Trp-D-Lys-D-Asp)-NH2] ([GABA][dQ][dI][dW][dK][dD]-NH2; lactam N-6), 50 nM; for `CC[C@H](C)[C@@H]1NC(=O)[C@H](Cc2c[nH]c3ccccc23)NC(=O)[C@H](CCCCN)NC(=O)[C@@H](NC(=O)CCc2ccc(C)cc2)CSSC[C@@H](C(N)=O)NC(=O)[C@H](CCC(N)=O)NC1=O` [Example 80, (Des-amino-4-methyl)Phe-c(Cys-Lys-Trp-Ile-Gln-Cys)-NH2] ({Hydrocinnamoyl(4-Me)}-CKWIQC-NH2; disulfide 1-6), 10 nM. For `CCCCCCCCCC(=O)N[C@H]1CSSC[C@@H](C(N)=O)NC(=O)[C@H](CCC(N)=O)NC(=O)[C@H]([C@@H](C)CC)NC(=O)[C@H](Cc2c[nH]c3ccccc23)NC(=O)[C@H](CCCCN)NC1=O` [Example 83, Decanoyl-c(Cys-Lys-Trp-Ile-Gln-Cys)-NH2] (Decanoyl-CKWIQC-NH2; disulfide 1-6) the value was 20 nM; for `CC[C@H](C)[C@@H]1NC(=O)[C@H](Cc2c[nH]c3ccccc23)NC(=O)[C@H](CCCCN)NC(=O)CCCCCCCCNC(=O)CC[C@@H](C(N)=O)NC(=O)[C@H](CCC(N)=O)NC1=O` [Example 98, c(Anc-Lys-Trp-Ile-Gln-Glu)-NH2] ([NH(CH2)8CO]KWIQE-NH2; lactam N-6), 15 nM; for `CC[C@H](C)[C@@H]1NC(=O)[C@H](Cc2c[nH]c3ccccc23)NC(=O)[C@H](CCCCN)NC(=O)CCCCCNC(=O)CC[C@@H](C(N)=O)NC(=O)[C@H](CCC(N)=O)NC1=O` [Example 92, c(Ahx-Lys-Trp-Ile-Gln-Glu)-NH2] ([Ahx]KWIQE-NH2; lactam N-6), 5 nM.

Regarding `CCCCCC(=O)N[C@H]1CSSC[C@@H](C(N)=O)NC(=O)[C@H](CCC(N)=O)NC(=O)[C@H]([C@@H](C)CC)NC(=O)[C@H](Cc2c[nH]c3ccccc23)NC(=O)[C@H](CCCCN)NC1=O` [Example 81, n-Hexanoyl-c(Cys-Lys-Trp-Ile-Gln-Cys)-NH2] (Hexanoyl-CKWIQC-NH2; disulfide 1-6), the EC50 was determined as 5 nM. `CC[C@H](C)[C@@H]1NC(=O)[C@H](Cc2c[nH]c3ccccc23)NC(=O)[C@H](CCCCN)NC(=O)[C@@H](NC(C)=O)CC(=O)NCCC[C@@H](C(N)=O)NC(=O)[C@H](CCC(N)=O)NC1=O` [Example 112, Ac-c(Asp-Lys-Trp-Ile-Gln-Orn)-NH2] (Ac-DKWIQ[Orn]-NH2; lactam 1-6) had an EC50 of 6 nM.

Regarding `CC[C@H](C)[C@@H]1NC(=O)[C@H](Cc2c[nH]c3ccccc23)NC(=O)[C@H](CCCCN)NC(=O)[C@@H](NC(=O)C(C)C)CNC(=O)C[C@@H](C(N)=O)NC(=O)[C@H](CCC(N)=O)NC1=O` [Example 104, Isobutyryl-c(Dap-Lys-Trp-Ile-Gln-Asp)-NH2] (Isobutyryl-[Dap]KWIQD-NH2; lactam 1-6), the response was half-maximal at 50 nM (EC50).

`CC[C@H](C)[C@@H]1NC(=O)[C@H](Cc2c[nH]c3ccccc23)NC(=O)[C@H](CCCCN)NC(=O)COCC(=O)NCCC[C@@H](C(N)=O)NC(=O)[C@H](CCC(N)=O)NC1=O` [Example 132, c(Diglycolyl-Lys-Trp-Ile-Gln-Orn)-NH2] (KWIQ[Orn]-NH2; linker N-5 via Diglycolyl) had an EC50 of 200 nM. For the compound `CC[C@H](C)[C@@H]1NC(=O)[C@H](Cc2c[nH]c3ccccc23)NC(=O)[C@H](CCCCN)NC(=O)CCCCNC(=O)CC[C@@H](C(N)=O)NC(=O)[C@H](CCC(N)=O)NC1=O` [Example 91, c(Apn-Lys-Trp-Ile-Gln-Glu)-NH2] ([Ava]KWIQE-NH2; lactam N-6), it took 9 nM to reach a half-maximal effect (EC50). In turn, `CC[C@H](C)[C@@H]1NC(=O)[C@H](Cc2c[nH]c3ccccc23)NC(=O)[C@H](CCCCN)NC(=O)COCC(=O)NC[C@@H](C(N)=O)NC(=O)[C@H](CCC(N)=O)NC1=O` [Example 130, c(Diglycolyl-Lys-Trp-Ile-Gln-Dap)-NH2] (KWIQ[Dap]-NH2; linker N-5 via Diglycolyl) yielded a 50% effective concentration (EC50) of 50 nM. For `CC[C@@H](C)[C@H]1NC(=O)[C@H](Cc2c[nH]c3ccccc23)NC(=O)[C@H](CCCCN)NC(=O)[C@@H](NC(C)=O)CSSC[C@@H](C(N)=O)NC(=O)[C@H](CCC(N)=O)NC1=O` [Example 76, Ac-c(Cys-Lys-Trp-D-Ile-Gln-Cys)-NH2] (Ac-CKW[dI]QC-NH2; disulfide 1-6) the value was 20 nM; for `CC[C@H](C)[C@@H]1NC(=O)[C@H](Cc2c[nH]c3ccccc23)NC(=O)[C@H](CCCCN)NC(=O)[C@@H](NC(=O)c2ccccc2)CSSC[C@@H](C(N)=O)NC(=O)[C@H](CCC(N)=O)NC1=O` [Example 57, Benzoyl-c(Cys-Lys-Trp-Ile-Gln-Cys)-NH2] (Bz-CKWIQC-NH2; disulfide 1-6), 15 nM; for `CC[C@H](C)[C@@H]1NC(=O)[C@H](Cc2c[nH]c3ccccc23)NC(=O)[C@H](CCCCN)NC(=O)CCC(=O)NCC[C@@H](C(N)=O)NC(=O)[C@H](CCC(N)=O)NC1=O` [Example 126, c(Succinyl-Lys-Trp-Ile-Gln-Dab)-NH2] (KWIQ[Dab]-NH2; linker N-5 via Suc), 6 nM.

Consider `CC[C@@H](C)[C@H]1NC(=O)[C@@H](CCC(N)=O)NC(=O)[C@H](NC(=O)c2ccccc2)CSSC[C@H](C(N)=O)NC(=O)[C@@H](CCCCN)NC(=O)[C@@H](Cc2c[nH]c3ccccc23)NC1=O` [Example 192, Benzoyl-c(D-Cys-D-Gln-D-Ile-D-Trp-D-Lys-D-Cys)-NH2] (Bz-[dC][dQ][dI][dW][dK][dC]-NH2; disulfide 1-6), for which the concentration for a half-maximal effect (EC50) is 7 nM.

As for `CC(C)[C@H](NC(=O)[C@@H](N)Cc1c[nH]c2ccccc12)C(=O)NC1CCC(=O)NC1=O` (stereo partly drawn) [Example 181, Trp-Val-α-aminoglutaramide], the EC50 was 20 nM. The compound `CC[C@H](C)[C@@H]1NC(=O)[C@H](Cc2c[nH]c3ccccc23)NC(=O)[C@H](CCCCN)NC(=O)CCCNC(=O)C[C@@H](C(N)=O)NC(=O)[C@H](CCC(N)=O)NC1=O` [Example 60, c(Gaba-Lys-Trp-Ile-Gln-Asp)-NH2] ([GABA]KWIQD-NH2; lactam N-6) had an EC50 of 30 nM.
